From ChEMBL document CHEMBL1201861, “Genomics of Drug Sensitity in Cancer screening data, Wellcome Trust Sanger Institute”

Assays:
Experiment in all cases: cells
Details in all cases: Homo sapiens
COLO-824 = type: functional, cell-based
Description: SANGER: Inhibition of human COLO-824 cell growth in a cell viability assay.

COLO-829 = type: functional, cell-based
Description: SANGER: Inhibition of human COLO-829 cell growth in a cell viability assay.

CTV-1 = type: functional, cell-based;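 also: growth inhibition of the cell line, read out with a cell viability assay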
Description: SANGER: Inhibition of human CTV-1 cell growth in a cell viability assay.

Calu-6 = type: functional, cell-based;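 also: growth of human Calu-6 cells, read out by a cell viability assay, IC50 marking inhibition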
Description: SANGER: Inhibition of human Calu-6 cell growth in a cell viability assay.

DEL = type: functional, cell-based;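 also: growth inhibition of the human DEL cell line, read out with a cell viability assay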
Description: SANGER: Inhibition of human DEL cell growth in a cell viability assay.

DMS-114 = type: functional, cell-based
DMS-79 = type: functional, cell-based;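 also: growth inhibition measured with a cell viability assay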
Description: SANGER: Inhibition of human DMS-79 cell growth in a cell viability assay.

DSH1 = type: functional, cell-based;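 also: growth inhibition of human DSH1 cells, measured with a cell viability readout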
Description: SANGER: Inhibition of human DSH1 cell growth in a cell viability assay.

EC-GI-10 = type: functional, cell-based
Description: SANGER: Inhibition of human EC-GI-10 cell growth in a cell viability assay.

ETK-1 = type: functional, cell-based;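 also: growth inhibition of human ETK-1 cells, read out with a cell viability assay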
Description: SANGER: Inhibition of human ETK-1 cell growth in a cell viability assay.

EW-24 = type: functional, cell-based;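 also: human EW-24 cancer cell line, growth inhibition read out via a cell viability assay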
Description: SANGER: Inhibition of human EW-24 cell growth in a cell viability assay.

GAK = type: functional, cell-based;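 also: cell growth inhibition read out by a cell viability assay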
Description: SANGER: Inhibition of human GAK cell growth in a cell viability assay.

HAL-01 = type: functional, cell-based;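 also: growth inhibition of human HAL-01 cells, read out with a cell viability assay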
Description: SANGER: Inhibition of human HAL-01 cell growth in a cell viability assay.

HCC1187 = type: functional, cell-based;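 also: growth inhibition of HCC1187 cells, read out with a cell viability assay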
Description: SANGER: Inhibition of human HCC1187 cell growth in a cell viability assay.

HD-MY-Z = type: functional, cell-based;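 also: growth inhibition of HD-MY-Z cells, read out with a cell viability assay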
Description: SANGER: Inhibition of human HD-MY-Z cell growth in a cell viability assay.

HT-144 = type: functional, cell-based
Description: SANGER: Inhibition of human HT-144 cell growth in a cell viability assay.

IST-SL1 = type: functional, cell-based;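 also: growth inhibition of human IST-SL1 cells, read out with a cell viability assay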
Description: SANGER: Inhibition of human IST-SL1 cell growth in a cell viability assay.

JVM-2 = type: functional, cell-based;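 also: growth inhibition of JVM-2 cells determined by a cell viability assay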
Description: SANGER: Inhibition of human JVM-2 cell growth in a cell viability assay.

KALS-1 = type: functional, cell-based;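 also: growth inhibition of KALS-1 cells, determined with a cell viability assay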
Description: SANGER: Inhibition of human KALS-1 cell growth in a cell viability assay.

L-428 = type: functional, cell-based
Description: SANGER: Inhibition of human L-428 cell growth in a cell viability assay.

LAMA-84 = type: functional, cell-based;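 also: growth inhibition of LAMA-84 cells, read out with a cell viability assay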
Description: SANGER: Inhibition of human LAMA-84 cell growth in a cell viability assay.

LB2518-MEL = type: functional, cell-based;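 also: growth inhibition of human LB2518-MEL cells, measured with a cell viability assay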
Description: SANGER: Inhibition of human LB2518-MEL cell growth in a cell viability assay.

LC-2-ad = type: functional, cell-based;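 also: growth inhibition of human LC-2-ad cells, read out with a cell viability assay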
Description: SANGER: Inhibition of human LC-2-ad cell growth in a cell viability assay.

LU-139 = type: functional, cell-based
Description: SANGER: Inhibition of human LU-139 cell growth in a cell viability assay.

MC116 = type: functional, cell-based;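 also: growth inhibition of MC116 cells, read out with a cell viability assay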
Description: SANGER: Inhibition of human MC116 cell growth in a cell viability assay.

MFM-223 = type: functional, cell-based
Description: SANGER: Inhibition of human MFM-223 cell growth in a cell viability assay.

MPP-89 = type: functional, cell-based;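 also: growth inhibition of human MPP-89 cells, read out with a cell viability assay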
Description: SANGER: Inhibition of human MPP-89 cell growth in a cell viability assay.

MZ2-MEL = type: functional, cell-based;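 also: growth inhibition of MZ2-MEL cells read out with a cell viability assay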
Description: SANGER: Inhibition of human MZ2-MEL cell growth in a cell viability assay.

NCI-H1092 = type: functional, cell-based;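 also: cell growth inhibition measured with a cell viability assay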
Description: SANGER: Inhibition of human NCI-H1092 cell growth in a cell viability assay.

NCI-H1304 = type: functional, cell-based;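 also: growth inhibition of the cancer cell line, measured in a cell viability assay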
Description: SANGER: Inhibition of human NCI-H1304 cell growth in a cell viability assay.

NCI-H1395 = type: functional, cell-based;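 also: cell viability assay read-out quantifying reduced proliferation of human NCI-H1395 cells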
Description: SANGER: Inhibition of human NCI-H1395 cell growth in a cell viability assay.

NCI-H1770 = type: functional, cell-based;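 also: growth inhibition of NCI-H1770 cells determined with a viability readout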
Description: SANGER: Inhibition of human NCI-H1770 cell growth in a cell viability assay.

NCI-H2126 = type: functional, cell-based;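 also: growth inhibition of the cancer cell line, determined with a cell viability readout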
Description: SANGER: Inhibition of human NCI-H2126 cell growth in a cell viability assay.

NCI-H226 = type: functional, cell-based;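 also: cell viability read-out used to gauge growth inhibition of the cells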
Description: SANGER: Inhibition of human NCI-H226 cell growth in a cell viability assay.

NCI-H23 = type: functional, cell-based;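 also: cell viability assay measuring growth inhibition of NCI-H23 cells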
Description: SANGER: Inhibition of human NCI-H23 cell growth in a cell viability assay.

NCI-H510A = type: functional, cell-based;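 also: growth inhibition of NCI-H510A cells, read out with a cell viability assay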
Description: SANGER: Inhibition of human NCI-H510A cell growth in a cell viability assay.

NCI-H82 = type: functional, cell-based;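 also: growth inhibition of NCI-H82 cells, measured with a cell viability readout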
Description: SANGER: Inhibition of human NCI-H82 cell growth in a cell viability assay.

NH-12 = type: functional, cell-based;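 also: growth inhibition of NH-12 cells, read out with a cell viability assay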
Description: SANGER: Inhibition of human NH-12 cell growth in a cell viability assay.

OCI-AML2 = type: functional, cell-based;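 also: growth inhibition of OCI-AML2 cells, read out with a cell viability assay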
Description: SANGER: Inhibition of human OCI-AML2 cell growth in a cell viability assay.

OCUB-M = type: functional, cell-based;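 also: growth inhibition of the cancer cell line, read out through a cell viability assay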
Description: SANGER: Inhibition of human OCUB-M cell growth in a cell viability assay.

OS-RC-2 = type: functional, cell-based;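 also: growth inhibition of human OS-RC-2 cells, measured by a cell viability assay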
Description: SANGER: Inhibition of human OS-RC-2 cell growth in a cell viability assay.

OVCAR-4 = type: functional, cell-based;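 also: growth inhibition of human OVCAR-4 cells, measured with a cell viability assay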
Description: SANGER: Inhibition of human OVCAR-4 cell growth in a cell viability assay.

RCC10RGB = type: functional, cell-based;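 also: growth inhibition of human RCC10RGB cells, read out by a cell viability assay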
Description: SANGER: Inhibition of human RCC10RGB cell growth in a cell viability assay.

RH-1 = type: functional, cell-based;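 also: growth inhibition of human RH-1 cells, read out with a cell viability assay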
Description: SANGER: Inhibition of human RH-1 cell growth in a cell viability assay.

RS4-11 = type: functional, cell-based;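 also: growth inhibition of RS4-11 cells, read out by a cell viability assay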
Description: SANGER: Inhibition of human RS4-11 cell growth in a cell viability assay.

SCH = type: functional, cell-based;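 also: growth inhibition of human SCH cells, read out in a cell viability assay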
Description: SANGER: Inhibition of human SCH cell growth in a cell viability assay.

SHP77 = type: functional, cell-based, SHP-77;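 also: growth inhibition of human SHP-77 cells measured by a cell viability assay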
Description: SANGER: Inhibition of human SHP-77 cell growth in a cell viability assay.

SK-N-DZ = type: functional, cell-based;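 also: growth inhibition of the cancer cell line, read out through a viability assay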
Description: SANGER: Inhibition of human SK-N-DZ cell growth in a cell viability assay.

SK-UT-1 = type: functional, cell-based;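 also: growth inhibition of SK-UT-1 cells, measured by a cell viability assay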
Description: SANGER: Inhibition of human SK-UT-1 cell growth in a cell viability assay.

SNB-75 = type: functional, cell-based;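 also: cell viability assay measuring growth inhibition of human SNB-75 cells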
Description: SANGER: Inhibition of human SNB75 cell growth in a cell viability assay.

SW684 = type: functional, cell-based;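 also: growth inhibition of human SW684 cells, measured by a cell viability assay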
Description: SANGER: Inhibition of human SW684 cell growth in a cell viability assay.

SW872 = type: functional, cell-based;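 also: growth inhibition of SW872 cells, read out by a viability assay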
Description: SANGER: Inhibition of human SW872 cell growth in a cell viability assay.

A3-KAW = type: functional, cell-based;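 also: growth inhibition of human A3-KAW cells, read out with a cell viability assay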
Description: SANGER: Inhibition of human A3-KAW cell growth in a cell viability assay.

A498 = type: functional, cell-based;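 also: growth inhibition of human A498 cells, read out with a cell viability assay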
Description: SANGER: Inhibition of human A498 cell growth in a cell viability assay.

ATN-1 = type: functional, cell-based;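 also: growth inhibition of human ATN-1 cells, read out with a cell viability assay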
Description: SANGER: Inhibition of human ATN-1 cell growth in a cell viability assay.

BB65-RCC = type: functional, cell-based;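 also: growth inhibition of the cell line, measured with a cell viability assay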
Description: SANGER: Inhibition of human BB65-RCC cell growth in a cell viability assay.

BV-173 = type: functional, cell-based
Description: SANGER: Inhibition of human BV-173 cell growth in a cell viability assay.

TE-12 = type: functional, cell-based;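 also: growth inhibition of TE-12 cells, read out by a cell viability assay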
Description: SANGER: Inhibition of human TE-12 cell growth in a cell viability assay.

TGBC1TKB = type: functional, cell-based
Description: SANGER: Inhibition of human TGBC1TKB cell growth in a cell viability assay.

no-10 = type: functional, cell-based
Description: SANGER: Inhibition of human no-10 cell growth in a cell viability assay.

CAS-1 = type: functional, cell-based
Description: SANGER: Inhibition of human CAS-1 cell growth in a cell viability assay.

EOL1 = type: functional, cell-based
Description: SANGER: Inhibition of human EoL-1-cell cell growth in a cell viability assay.

KU812 cell line = type: functional, cell-based
Description: SANGER: Inhibition of human KU812 cell growth in a cell viability assay.

NB13 = type: functional, cell-based
Description: SANGER: Inhibition of human NB13 cell growth in a cell viability assay.

NCI-H720 = type: functional, cell-based
Description: SANGER: Inhibition of human NCI-H720 cell growth in a cell viability assay.

SK-N-FI = type: functional, cell-based
Description: SANGER: Inhibition of human SK-N-FI cell growth in a cell viability assay.

`NC(=O)c1ncn([C@@H]2O[C@H](COP(=O)(O)O)[C@@H](O)[C@H]2O)c1N` showed an IC50 (COLO-824) of 1130 µM, an IC50 (COLO-829) greater than 2000 µM and an IC50 (CTV-1) of 266 µM. The IC50 (Calu-6) was 732 µM, the IC50 (DEL) was 232 µM and the IC50 (DMS-114) was 1580 µM. For the same molecule, the IC50 (DMS-79) was greater than 2000 µM, the IC50 (DSH1) was greater than 2000 µM and the IC50 (EC-GI-10) was greater than 2000 µM. The IC50 (ETK-1) was 541 µM, the IC50 (EW-24) was greater than 2000 µM and the IC50 (GAK) was greater than 2000 µM. The IC50 (HAL-01) was 434 µM, the IC50 (HCC1187) was 1140 µM and the IC50 (HD-MY-Z) was 1950 µM. The IC50 (HT-144) was greater than 2000 µM, the IC50 (IST-SL1) was greater than 2000 µM and the IC50 (JVM-2) was greater than 2000 µM. The IC50 (KALS-1) was 1160 µM, the IC50 (L-428) was greater than 2000 µM and the IC50 (LAMA-84) was 435 µM. It also gave an IC50 (LB2518-MEL) greater than 2000 µM, an IC50 (LC-2-ad) of 1170 µM and an IC50 (LU-139) of 803 µM. It also gave an IC50 (MC116) of 1290 µM, an IC50 (MFM-223) of 1160 µM and an IC50 (MPP-89) greater than 2000 µM. For the same molecule, the IC50 (MZ2-MEL) was greater than 2000 µM, the IC50 (NCI-H1092) was 1220 µM and the IC50 (NCI-H1304) was greater than 2000 µM. For the same molecule, the IC50 (NCI-H1395) was greater than 2000 µM, the IC50 (NCI-H1770) was 485 µM and the IC50 (NCI-H2126) was greater than 2000 µM. For the same molecule, the IC50 (NCI-H226) was greater than 2000 µM, the IC50 (NCI-H23) was greater than 2000 µM and the IC50 (NCI-H510A) was greater than 2000 µM. It also gave an IC50 (NCI-H82) of 993 µM, an IC50 (NH-12) greater than 2000 µM and an IC50 (OCI-AML2) of 1150 µM. For the same molecule, the IC50 (OCUB-M) was 1190 µM, the IC50 (OS-RC-2) was greater than 2000 µM and the IC50 (OVCAR-4) was 751 µM. It also gave an IC50 (RCC10RGB) greater than 2000 µM, an IC50 (RH-1) greater than 2000 µM and an IC50 (RS4-11) of 351 µM. It also gave an IC50 (SCH) greater than 2000 µM, an IC50 (SHP77) greater than 2000 µM and an IC50 (SK-N-DZ) of 1020 µM. It also gave an IC50 (SK-UT-1) greater than 2000 µM, an IC50 (SNB-75) of 1400 µM and an IC50 (SW684) of 896 µM. For the same molecule, the IC50 (SW872) was greater than 2000 µM, the IC50 (A3-KAW) was 368 µM and the IC50 (A498) was greater than 2000 µM. The IC50 (ATN-1) was 412 µM, the IC50 (BB65-RCC) was 1200 µM and the IC50 (BV-173) was 93.8 µM. It also gave an IC50 (TE-12) greater than 2000 µM, an IC50 (TGBC1TKB) of 814 µM and an IC50 (no-10) greater than 2000 µM. It also gave an IC50 (CAS-1) greater than 2000 µM.
`Cc1[nH]c(/C=C2\C(=O)Nc3ccc(S(=O)(=O)Cc4c(Cl)cccc4Cl)cc32)c(C)c1C(=O)N1CCC[C@@H]1CN1CCCC1` [PHA-665752] was tested, and the IC50 (COLO-824) was greater than 2 µM, the IC50 (COLO-829) was greater than 2 µM and the IC50 (CTV-1) was greater than 2 µM. It also gave an IC50 (Calu-6) greater than 2 µM, an IC50 (DEL) greater than 2 µM and an IC50 (DMS-114) greater than 2 µM. The IC50 (DMS-79) was greater than 2 µM, the IC50 (DSH1) was greater than 2 µM and the IC50 (EC-GI-10) was greater than 2 µM. The IC50 (ETK-1) was greater than 2 µM, the IC50 (EW-24) was greater than 2 µM and the IC50 (EOL1) was greater than 2 µM. The IC50 (GAK) was […], the IC50 (HAL-01) was greater than 2 µM and the IC50 (HCC1187) was greater than 2 µM. For the same molecule, the IC50 (HD-MY-Z) was greater than 2 µM, the IC50 (HT-144) was greater than 2 µM and the IC50 (IST-SL1) was greater than 2 µM. For the same molecule, the IC50 (JVM-2) was greater than 2 µM, the IC50 (KALS-1) was greater than 2 µM and the IC50 (KU812 cell line) was greater than 2 µM. For the same molecule, the IC50 (L-428) was greater than 2 µM, the IC50 (LAMA-84) was greater than 2 µM and the IC50 (LB2518-MEL) was greater than 2 µM. For the same molecule, the IC50 (LC-2-ad) was greater than 2 µM, the IC50 (LU-139) was greater than 2 µM and the IC50 (MC116) was greater than 2 µM. For the same molecule, the IC50 (MFM-223) was greater than 2 µM, the IC50 (MPP-89) was greater than 2 µM and the IC50 (MZ2-MEL) was greater than 2 µM. The IC50 (NB13) was greater than 2 µM, the IC50 (NCI-H1092) was greater than 2 µM and the IC50 (NCI-H1304) was greater than 2 µM. It also gave an IC50 (NCI-H1395) greater than 2 µM, an IC50 (NCI-H1770) greater than 2 µM and an IC50 (NCI-H2126) greater than 2 µM. For the same molecule, the IC50 (NCI-H226) was greater than 2 µM, the IC50 (NCI-H23) was greater than 2 µM and the IC50 (NCI-H510A) was greater than 2 µM. For the same molecule, the IC50 (NCI-H720) was greater than 2 µM, the IC50 (NCI-H82) was greater than 2 µM and the IC50 (NH-12) was greater than 2 µM. The IC50 (OCI-AML2) was greater than 2 µM, the IC50 (OCUB-M) was greater than 2 µM and the IC50 (OS-RC-2) was greater than 2 µM. The IC50 (OVCAR-4) was greater than 2 µM, the IC50 (RCC10RGB) was greater than 2 µM and the IC50 (RH-1) was greater than 2 µM. It also gave an IC50 (RS4-11) greater than 2 µM, an IC50 (SHP77) greater than 2 µM and an IC50 (SK-N-DZ) greater than 2 µM. It also gave an IC50 (SK-N-FI) greater than 2 µM, an IC50 (SK-UT-1) greater than 2 µM and an IC50 (SNB-75) greater than 2 µM. For the same molecule, the IC50 (SW684) was greater than 2 µM, the IC50 (SW872) was greater than 2 µM and the IC50 (A3-KAW) was greater than 2 µM. For the same molecule, the IC50 (A498) was greater than 2 µM, the IC50 (ATN-1) was greater than 2 µM and the IC50 (BB65-RCC) was greater than 2 µM. The IC50 (BV-173) was greater than 2 µM, the IC50 (TE-12) was greater than 2 µM and the IC50 (TGBC1TKB) was greater than 2 µM. The IC50 (no-10) was greater than 2 µM and the IC50 (CAS-1) was greater than 2 µM.
